Data as given in patent US20230310435A1, “HOST DEFENSE PROTEIN (HDP) MIMETICS FOR PROPHYLAXIS AND/OR TREATMENT OF INFLAMMATORY DISEASES OF THE GASTROINTESTINAL TRACT” (priority 2015, published 2023).
Where “and” joins values, the source holds several entries; their conditions need not be identical. Identical values can stand only once. Counter-ions that a name gives are not always drawn. Like-named read-outs stand apart in the source and are kept apart here.

Experiments:
[1] = Plasma pharmacokinetics after IV or PO administration (Study 16009-12001); type: in vivo, male Balb/c mice; settings: male mice; for Cmax: read-out: Cmax (peak concentration)
Description: Method for FIG. 11. […] The test article, PMX-30063, was corrected for salt form but no adjustment was made for purity. […] The resulting formulation was clear colorless solution (pH 7) and was stored at room temperature until administered. The formulated solution was clear and colorless until dosing was completed.
A total of 60 male Balb/c mice, approximately 4-7 weeks of age at receipt with body weight of 18.0 g to 21.9 g were used in this study.
Three mice in each group were used for blood at each time point at post-dose at 5 minutes, 15 minutes, 30 minutes, 1, 2, 4, 8, and 24 hours for Groups 1-2. Blood samples (at least 300 μL/sample) were collected via cardiac puncture after euthanasia by carbon dioxide inhalation at appropriate time points. Samples were placed in tubes containing K2-EDTA, and then centrifuged at approximately 8,000 rpm for 6 minutes at 4° C. and the resulting plasma were separated and stored frozen at approximately −80° C.
The pharmacokinetic (PK) analysis were conducted by Medicilon Preclinical Research (Shanghai) LLC. The PK parameters were determined by the Study Director for the test article from mean concentration-time data in the test species. A non-compartmental module of WinNonlin™ Professional 5.2 was used to calculate parameters. Any BLQs (LLOQ=2.5 ng/mL for plasma and LLOQ=500 ng/g for small intestine) were replaced with a value of “0”, and the mean value and its standard deviation (SD) are calculated with these replaced values.
Plasma samples (50 μL) were transferred to centrifuge tube, then 250 μL IS solution (50 ng/mL Carvedilol) was added to it. After vortexing for 1 minute and centrifuging for 5 minutes at 15,000 rpm, 100 μL aliquots of supernatant were transferred to glass autosampler vials.

human PDE4B2 = human PDE4B2 (Homo sapiens, UniProt Q07343); experiment: PDE-Glo phosphodiesterase assay, PDE4; type: biochemical; settings: 8 ng PDE4B, 1 μM cAMP substrate, 15 min pre-incubation; read-out: IC50, inhibition of PDE4
human PDE4B2, sequence (Q07343 1-564 isoform Q07343-2): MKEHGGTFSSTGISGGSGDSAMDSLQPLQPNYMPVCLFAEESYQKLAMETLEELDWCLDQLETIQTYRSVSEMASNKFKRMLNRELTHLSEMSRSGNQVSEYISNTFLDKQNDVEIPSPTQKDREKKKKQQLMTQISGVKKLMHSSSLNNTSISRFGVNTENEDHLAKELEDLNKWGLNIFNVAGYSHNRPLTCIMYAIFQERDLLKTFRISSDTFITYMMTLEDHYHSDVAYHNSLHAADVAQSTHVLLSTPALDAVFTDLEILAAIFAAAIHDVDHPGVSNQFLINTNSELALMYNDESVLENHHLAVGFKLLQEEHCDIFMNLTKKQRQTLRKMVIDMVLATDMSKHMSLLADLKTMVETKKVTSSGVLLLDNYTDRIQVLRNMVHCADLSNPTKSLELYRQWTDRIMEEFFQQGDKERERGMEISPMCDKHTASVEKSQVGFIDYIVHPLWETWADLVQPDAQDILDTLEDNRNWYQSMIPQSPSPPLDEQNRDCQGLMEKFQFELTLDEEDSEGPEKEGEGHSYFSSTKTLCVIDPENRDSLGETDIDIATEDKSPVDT
Method: Method for FIG. 1. […] The compounds and PDE4B (BPS Biosciences, San Diego, CA) were mixed and pre-incubated at room temperature for 15 minutes. Substrate was added and the reaction was incubated for 7 minutes at room temperature. Data are presented as luminescence units (RLU).
Method for FIG. 2. Phosphodiesterase inhibition assays of PDE4 were performed, using PMX-60056. The PDE-Glo phosphodiesterase assay (Promega, Madison, WI, USA Catalog No. V1361) was performed using 8 ng of PDE4B (BPS Biosciences, San Diego, CA). […] The compounds and PDE4B were mixed and pre-incubated at room temperature for 15 minutes. Substrate was added and the reaction was incubated for 7 minutes at room temperature. Data are presented as luminescence units (RLU).
Phosphodiesterase type 4 (PDE4) is predominant phosphodiesterase expressed in neutrophils, T cells and macrophages. PDE inhibitors show broad spectrum of anti-inflammatory effects in almost all inflammatory cells. PDE4 inhibitors, block the degradative action of PDE4 on cAMP, thereby increasing intracellular levels of cAMP levels which mediate phosphorylation of protein kinases. […] Data are presented as luminescence units (RLU).
The PDE-Glo phosphodiesterase assay was performed according to the Method described for FIG. 2, using 8 ng of PDE4B, 1 μM cAMP substrate PMX-60056. Data are presented as luminescence units (RLU). […]

With `N=C(N)NCCCCC(=O)Nc1cc(C(F)(F)F)cc(NC(=O)c2cc(C(=O)Nc3cc(C(F)(F)F)cc(NC(=O)CCCCNC(=N)N)c3O[C@@H]3CCNC3)ncn2)c1O[C@@H]1CCNC1` [PMX-30063, N^4,N^6-bis(2-((R)-pyrrolidin-3-yloxy)-3-((4-carbamoylbutyl)guanidine)-5-(trifluoromethyl)phenyl)pyrimidine-4,6-dicarboxamide tetrahydrochloride salt] the AUC(0-inf) ([1]; Balb/c, mouse, IV 5 mg/kg) was 97800 ng·h/mL, the AUC(0-t) ([1]; Balb/c, mouse, IV 5 mg/kg) was 97700 ng·h/mL and the Tmax ([1]; Balb/c, mouse, IV 5 mg/kg) was 0.083 h. For the same compound, the clearance ([1]; Balb/c, mouse, IV 5 mg/kg) was 0.852 mL/min/kg, the half-life ([1]; Balb/c, mouse, IV 5 mg/kg) was 2.76 h and the Cmax ([1]; Balb/c, mouse, IV 5 mg/kg) was 48400 ng/mL. For the same compound, the Vd ([1]; Balb/c, mouse, IV 5 mg/kg, read-out: Vz) was 0.204 L/kg, the AUC(0-inf) ([1]; Balb/c, mouse, PO 10 mg/kg) was 113 ng·h/mL and the AUC(0-t) ([1]; Balb/c, mouse, PO 10 mg/kg) was 111 ng·h/mL. For the same compound, the Tmax ([1]; Balb/c, mouse, PO 10 mg/kg) was 2 h, the half-life ([1]; Balb/c, mouse, PO 10 mg/kg) was 1.26 h and the Cmax ([1]; Balb/c, mouse, PO 10 mg/kg) was 33.7 ± 8.56 ng/mL. The “MRT(0-∞)” value ([1]; IV 5 mg/kg) was 2.86 H, the “F*” value ([1]; PO 10 mg/kg vs IV 5 mg/kg) was 0.0579% and the “MRT(0-∞)” value ([1]; PO 10 mg/kg) was 2.68 H. For the same compound, the IC50 (human PDE4B2) was ~3 µM and 3 µM.
